experiment: In vitro radical scavenging action (DPPH method); conditions: not given
Procedure: The radical scavenging action of a test compound can be evaluated using an in vitro test and, for example, by a method (Antioxidants, 2019, vol. 258) using a stable radical, 1,1-diphenyl-2-picrylhydrazil (DPPH).
Radical scavenging action was evaluated using the DPPH method in the compound of Comparative Example 1, which is a tetrahydroquinoxaline derivative, and in the tetrahydroquinoline derivative (I) or a pharmaceutically acceptable salt thereof. The DPPH method was performed using an antioxidant capacity measurement kit (Dojindo Laboratories).
A test compound was dissolved in DMSO, and the resulting solution was then mixed with an assay buffer and a DPPH solution, which are included in the kit, to a total volume of 200 μL to obtain a final concentration of 10% DMSO, and the reaction was allowed to proceed. Wells added with […] ferrostatin-1, a radical scavenger, were grouped as “control,” and wells not added with test compound were grouped as “background”. The test compound was serially diluted 3-fold starting from a maximum concentration of 100 μmol/L, and the diluted test compound (1.2, 3.7, 11.1, 33.3, or 100 μmol/L) was added and allowed to react at room temperature. Thirty minutes after the reaction, the absorbance at 517 nm was measured, and the average absorbance value was calculated (N=2). The radical scavenging action of the test compound (hereinafter referred to as radical scavenging rate, %) was calculated based on Equation 2. The EC50 value of the test compound was calculated from the radical scavenging rate.
A note “no detection of radical scavenging action (N.D.),” is given to compounds with a EC50 of >100 μmol/L.

Row | Compound | radical scavenging action (in words)
1 | c1ccc(C2CNc3ccccc3N2)cc1 (stereo not drawn) [Comparative Example 1, 2-phenyl-1,2,3,4-tetrahydroquinoxaline, reference compound] | exhibited radical scavenging action

same assay, conditions: 1.2-100 μmol/L, 30 minutes at room temperature, absorbance at 517 nm

Row | EC50 | Compound
2 | 8.54 µM | c1ccc(C2CNc3ccccc3N2)cc1 (stereo not drawn) [Comparative Example 1, 2-phenyl-1,2,3,4-tetrahydroquinoxaline, reference compound]
3 | > 100 µM | c1ccc([C@H]2CCc3ccccc3N2)cc1 [Example 2, (R)-2-phenyl-1,2,3,4-tetrahydroquinoline]
4 | > 100 µM | c1ccc([C@@H]2CCc3ccccc3N2)cc1 [Example 3, (S)-2-phenyl-1,2,3,4-tetrahydroquinoline]
5 | > 100 µM | CS(=O)(=O)c1ccc(C2CCc3ccccc3N2)cc1 (stereo not drawn) [Example 16, 2-(4-(methylsulfonyl)phenyl)-1,2,3,4-tetrahydroquinoline]
6 | > 100 µM | CC(=O)Nc1ccc(C2CCc3ccccc3N2)cc1 (stereo not drawn) [Example 21, N-(4-(1,2,3,4-tetrahydroquinolin-2-yl)phenyl)acetamide]
7 | > 100 µM | Fc1ccc(C2CCc3ccccc3N2)cc1 (stereo not drawn) [Example 26, 2-(4-fluorophenyl)-1,2,3,4-tetrahydroquinoline]
8 | > 100 µM | FC(F)(F)c1ccc(C2CCc3ccccc3N2)cc1 (stereo not drawn) [Example 29, 2-(4-(trifluoromethyl)phenyl)-1,2,3,4-tetrahydroquinoline]
9 | > 100 µM | FC(F)(F)Oc1ccc(C2CCc3ccccc3N2)cc1 (stereo not drawn) [Example 31, 2-(4-(trifluoromethoxy)phenyl)-1,2,3,4-tetrahydroquinoline]
10 | > 100 µM | NS(=O)(=O)c1ccc(C2CCc3ccccc3N2)cc1 (stereo not drawn) [Example 32, 4-(1,2,3,4-tetrahydroquinolin-2-yl)benzenesulfonamide]
11 | > 100 µM | NS(=O)(=O)c1ccc(C2CCc3ccccc3N2)cc1 (stereo not drawn) [Example 33, 4-(1,2,3,4-tetrahydroquinolin-2-yl)benzenesulfonamide]
12 | > 100 µM | NS(=O)(=O)c1ccc(C2CCc3ccccc3N2)cc1 (stereo not drawn) [Example 34, 4-(1,2,3,4-tetrahydroquinolin-2-yl)benzenesulfonamide]
13 | > 100 µM | N#Cc1ccc(C2CCc3ccccc3N2)cc1 (stereo not drawn) [Example 35, 4-(1,2,3,4-tetrahydroquinolin-2-yl)benzonitrile]
14 | > 100 µM | NC(=O)c1ccc(C2CCc3ccccc3N2)cc1 (stereo not drawn) [Example 36, 4-(1,2,3,4-tetrahydroquinolin-2-yl)benzamide]
15 | > 100 µM | NC(=O)c1ccc(C2CCc3ccccc3N2)cc1 (stereo not drawn) [Example 37, 4-(1,2,3,4-tetrahydroquinolin-2-yl)benzamide]
16 | > 100 µM | NC(=O)c1ccc(C2CCc3ccccc3N2)cc1 (stereo not drawn) [Example 38, 4-(1,2,3,4-tetrahydroquinolin-2-yl)benzamide]
17 | > 100 µM | OCc1ccc2c(c1)CCC(c1ccccc1)N2 (stereo not drawn) [Example 58, (2-phenyl-1,2,3,4-tetrahydroquinolin-6-yl)methanol]
18 | > 100 µM | NC(=O)Cc1ccc2c(c1)CCC(c1ccccc1)N2 (stereo not drawn) [Example 60, 2-(2-phenyl-1,2,3,4-tetrahydroquinolin-6-yl)acetamide]
19 | > 100 µM | CC(C)(C)NC(=O)Cc1ccc2c(c1)CCC(c1ccccc1)N2 (stereo not drawn) [Example 61, N-(tert-butyl)-2-(2-phenyl-1,2,3,4-tetrahydroquinolin-6-yl)acetamide]
20 | > 100 µM | O=C(Cc1ccc2c(c1)CCC(c1ccccc1)N2)N1CC(O)C1 (stereo not drawn) [Example 62, 1-(3-hydroxyazetidin-1-yl)-2-(2-phenyl-1,2,3,4-tetrahydroquinolin-6-yl)ethan-1-one]
21 | > 100 µM | Fc1cccc2c1CCC(c1ccccc1)N2 (stereo not drawn) [Example 66, 5-fluoro-2-phenyl-1,2,3,4-tetrahydroquinoline]
22 | > 100 µM | Clc1cccc2c1CCC(c1ccccc1)N2 (stereo not drawn) [Example 67, 5-chloro-2-phenyl-1,2,3,4-tetrahydroquinoline]
23 | > 100 µM | Fc1ccc2c(c1)NC(c1ccccc1)CC2 (stereo not drawn) [Example 68, 7-fluoro-2-phenyl-1,2,3,4-tetrahydroquinoline]
24 | > 100 µM | Clc1ccc2c(c1)NC(c1ccccc1)CC2 (stereo not drawn) [Example 69, 7-chloro-2-phenyl-1,2,3,4-tetrahydroquinoline]

Source: patent publication US20260083723A1, “THERAPEUTIC AGENT OR PROPHYLACTIC AGENT FOR AMYOTROPHIC LATERAL SCLEROSIS” (Toray Industries, Inc., priority 2022, published 2026)
